Each structure is given as a SMILES string. Where two headings read alike, the source gives them in different places.

In general, IC50 refers to the concentration at which inhibition is half-maximal.

The target in assay [1] is T1, equine serum butyrylcholinesterase (BChE, EC 3.1.1.8) (Equus caballus, UniProt P81908).
T1 construct: purchased Sigma-Aldrich (St. Louis, MO, USA); host or cells: equine serum
As to the kind of experiment: biochemical. The class given is biochemical. Conditions: for BChE inhibition effect (in words): 2a, 2r: up to a concentration of 1000 µM. The text has this:
(§1) Electric eel acetylcholinesterase (AChE, EC 3.1.1.7), equine serum butyrylcholinesterase (BChE, EC 3.1.1.8), 5,5’-dithio-bis-2-nitrobenzoic acid (DTNB), and sodium phosphate dibasic (Na2HPO4) were purchased from Sigma-Aldrich (St. Louis, MO, USA). S-butyrylthiocholine chloride (BTCC) from Sigma-Aldrich (Buchs, Switzerland), acetylthiocholine iodide (ATCI) from Sigma-Aldrich (Dorset, UK) and sodium phosphate monobasic (NaH2PO4) from Sigma-Aldrich (Munich, Germany) were purchased. […] The reagents and solvents for the synthesis work were obtained commercially from Sigma-Aldrich Corporation (St. Louis, MO, USA) and used without any further purification.
(§2) AChE and BChE inhibitory activities of the compounds were determined by Ellman’s assay with minor modifications. […] After a pre-incubation of 15 min at room temperature, 10 µL of 0.50 mM DTNB was added into each well, followed by 10 µL of 0.71 mM acetylthiocholine iodide as the substrate. […] Each test was carried out in triplicate and the results were expressed as an average value. The percentage of inhibition was calculated using the following formula: (1) Percentage of inhibition=S blank -S sample/S blank × 100% where S blank is slope of the blank reaction (without compounds or a reference standard) and S sample is the slope of the sample reaction (with compounds or a reference drug).
(§3) The results of the cholinesterase inhibitory assay were expressed as means ± SD, and were labeled if p < 0.05 using ANOVA of IBM SPSS Statistics for Windows, Version 23.0 (IBM, New York, NY, USA).

For assay [2], the target named is T2, Electric eel acetylcholinesterase (AChE, EC 3.1.1.7) (Electrophorus electricus, UniProt O42275).
T2 construct: purchased Sigma-Aldrich (St. Louis, MO, USA)
T2 sequence (O42275 24-633): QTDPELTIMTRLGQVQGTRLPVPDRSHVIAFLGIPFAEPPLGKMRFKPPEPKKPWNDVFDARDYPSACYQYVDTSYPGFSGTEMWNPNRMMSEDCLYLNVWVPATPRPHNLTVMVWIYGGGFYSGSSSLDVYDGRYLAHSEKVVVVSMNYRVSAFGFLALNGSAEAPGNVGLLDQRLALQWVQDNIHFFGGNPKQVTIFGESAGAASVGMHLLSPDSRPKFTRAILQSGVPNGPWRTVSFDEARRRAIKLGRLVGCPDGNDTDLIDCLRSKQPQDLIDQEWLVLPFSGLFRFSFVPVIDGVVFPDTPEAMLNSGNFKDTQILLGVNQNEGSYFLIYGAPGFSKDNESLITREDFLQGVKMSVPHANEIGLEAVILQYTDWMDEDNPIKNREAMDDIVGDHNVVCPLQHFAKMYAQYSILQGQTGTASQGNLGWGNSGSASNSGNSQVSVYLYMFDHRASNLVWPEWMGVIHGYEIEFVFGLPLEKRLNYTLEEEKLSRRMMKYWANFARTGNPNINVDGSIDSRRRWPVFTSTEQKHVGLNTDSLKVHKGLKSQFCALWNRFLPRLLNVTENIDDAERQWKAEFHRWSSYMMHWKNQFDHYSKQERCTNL
Description: biochemical. Conditions: for AChE inhibition effect (in words): 2a, 2r: up to a concentration of 1000 µM. Type of assay: biochemical.
Excerpt: as §1, §2, §3

The mark [3] stands for this setting: Ellman's assay, pH 8, 15 min pre-incubation, butyrylthiocholine chloride substrate, mean ± SD, triplicate, read-out: BChE IC50.
Where [4] appears, read: Ellman's assay, pH 8, 15 min pre-incubation, acetylthiocholine iodide substrate, mean ± SD, triplicate, read-out: AChE IC50.

T1 sequence (P81908 whole entry): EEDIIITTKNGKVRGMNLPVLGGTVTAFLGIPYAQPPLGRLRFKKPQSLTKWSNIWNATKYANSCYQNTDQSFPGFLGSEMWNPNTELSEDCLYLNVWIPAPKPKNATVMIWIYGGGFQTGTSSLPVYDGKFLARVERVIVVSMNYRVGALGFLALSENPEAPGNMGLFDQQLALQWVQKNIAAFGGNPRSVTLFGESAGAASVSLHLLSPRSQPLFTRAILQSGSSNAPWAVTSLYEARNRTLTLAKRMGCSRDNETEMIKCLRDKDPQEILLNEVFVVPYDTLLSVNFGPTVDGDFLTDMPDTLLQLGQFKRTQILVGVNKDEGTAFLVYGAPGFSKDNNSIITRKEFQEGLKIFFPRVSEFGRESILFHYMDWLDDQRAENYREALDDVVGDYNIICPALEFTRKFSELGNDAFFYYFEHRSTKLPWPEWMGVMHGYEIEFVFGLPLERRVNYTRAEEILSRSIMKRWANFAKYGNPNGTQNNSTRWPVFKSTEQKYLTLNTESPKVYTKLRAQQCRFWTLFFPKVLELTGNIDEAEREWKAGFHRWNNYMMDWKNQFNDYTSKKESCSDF

As to `O=C(OCC(=O)C12CC3CC(CC(C3)C1)C2)c1ccccc1` [Compound 2a, 2-(Adamantan-1-yl)-2-oxoethyl benzoate], the “BChE inhibition effect (in words)” value in assay [1] was “low inhibition effects”. The IC50 is greater than 1500 µM in assay [1] (setting [3]) and 994 ± 19.4 µM in assay [2] (setting [4]). Besides, the “AChE inhibition effect (in words)” value in assay [2] was “low inhibition effects”.

Regarding `O=C(OCC(=O)C12CC3CC(CC(C3)C1)C2)c1ccccc1Cl` [Compound 2b, 2-(Adamantan-1-yl)-2-oxoethyl 2-chlorobenzoate], the concentration for half-maximal inhibition (IC50) in assay [1] (setting [3]) is greater than 1500 µM; in assay [2] (setting [4]), 361 ± 30 µM.

Turning to `O=C(OCC(=O)C12CC3CC(CC(C3)C1)C2)c1cccc(Cl)c1` [Compound 2c, 2-(Adamantan-1-yl)-2-oxoethyl 3-chlorobenzoate], the results for the IC50 in assay [1] (setting [3]) and in assay [2] (setting [4]) were 971 ± 62.5 µM and 280 ± 17.4 µM, respectively.

With `O=C(OCC(=O)C12CC3CC(CC(C3)C1)C2)c1ccc(Cl)cc1` [Compound 2d, 2-(Adamantan-1-yl)-2-oxoethyl 4-chlorobenzoate], the figures for the IC50 in assay [1] (setting [3]) and in assay [2] (setting [4]) were 1290 ± 30.1 µM and 341 ± 34.7 µM, respectively.

As for `O=C(OCC(=O)C12CC3CC(CC(C3)C1)C2)c1ccc(Cl)cc1Cl` [Compound 2e, 2-(Adamantan-1-yl)-2-oxoethyl 2,4-dichlorobenzoate], the IC50 stood at 307 ± 25.1 µM in assay [1] (setting [3]) and 77.1 ± 7.86 µM in assay [2] (setting [4]).

Take `Cc1ccccc1C(=O)OCC(=O)C12CC3CC(CC(C3)C1)C2` [Compound 2f, 2-(Adamantan-1-yl)-2-oxoethyl 2-methylbenzoate]: the values for the IC50 in assay [1] (setting [3]) and in assay [2] (setting [4]) were greater than 1500 µM and 175 ± 25.9 µM, respectively.

Consider `Cc1cccc(C(=O)OCC(=O)C23CC4CC(CC(C4)C2)C3)c1` [Compound 2g, 2-(Adamantan-1-yl)-2-oxoethyl 3-methylbenzoate], for which the concentration for half-maximal inhibition (IC50) in assay [1] (setting [3]) is greater than 1500 µM; in assay [2] (setting [4]), 191 ± 14.4 µM.

In the case of `Cc1ccc(C(=O)OCC(=O)C23CC4CC(CC(C4)C2)C3)cc1` [Compound 2h, 2-(Adamantan-1-yl)-2-oxoethyl 4-methylbenzoate], the half-inhibitory concentration (IC50) in assay [1] (setting [3]) and in assay [2] (setting [4]) was greater than 1500 µM throughout.

For `COc1ccccc1C(=O)OCC(=O)C12CC3CC(CC(C3)C1)C2` [Compound 2i, 2-(Adamantan-1-yl)-2-oxoethyl 2-methoxybenzoate], the IC50 in assay [1] (setting [3]) and in assay [2] (setting [4]) was greater than 1500 µM throughout.

Regarding `COc1cccc(C(=O)OCC(=O)C23CC4CC(CC(C4)C2)C3)c1` [Compound 2j, 2-(Adamantan-1-yl)-2-oxoethyl 3-methoxybenzoate], the 50% inhibitory concentration (IC50) in assay [1] (setting [3]) was found to be 223 ± 17.6 µM; in assay [2] (setting [4]) it was 166 ± 19.6 µM.

For `COc1ccc(C(=O)OCC(=O)C23CC4CC(CC(C4)C2)C3)cc1` [Compound 2k, 2-(Adamantan-1-yl)-2-oxoethyl 4-methoxybenzoate], the IC50 in assay [1] (setting [3]) and in assay [2] (setting [4]) was greater than 1500 µM each time.

Regarding `O=C(OCC(=O)C12CC3CC(CC(C3)C1)C2)c1ccccc1[N+](=O)[O-]` [Compound 2l, 2-(Adamantan-1-yl)-2-oxoethyl 2-nitrobenzoate], the half-maximal inhibitory concentration (IC50) in assay [1] (setting [3]) is greater than 1500 µM; in assay [2] (setting [4]) it was 689 ± 44.5 µM.

As to `O=C(OCC(=O)C12CC3CC(CC(C3)C1)C2)c1cccc([N+](=O)[O-])c1` [Compound 2m, 2-(Adamantan-1-yl)-2-oxoethyl 3-nitrobenzoate], the IC50 is greater than 1500 µM in assay [1] (setting [3]) and 233 ± 25.9 µM in assay [2] (setting [4]).

Regarding `O=C(OCC(=O)C12CC3CC(CC(C3)C1)C2)c1ccc([N+](=O)[O-])cc1` [Compound 2n, 2-(Adamantan-1-yl)-2-oxoethyl 4-nitrobenzoate], the IC50 in assay [1] (setting [3]) was 777 ± 33.6 µM; in assay [2] (setting [4]), 349 ± 25.2 µM.

Consider `Nc1ccccc1C(=O)OCC(=O)C12CC3CC(CC(C3)C1)C2` [Compound 2o, 2-(adamantan-1-yl)-2-oxoethyl 2-aminobenzoate], for which, in assay [1], the half-maximal inhibitory concentration (IC50) is greater than 1500 µM and the “BChE inhibition effect (in words)” value is “inactive”. Further, in assay [2], the IC50 is greater than 1500 µM and the “AChE inhibition effect (in words)” value is “inactive”.

As for `Nc1cccc(C(=O)OCC(=O)C23CC4CC(CC(C4)C2)C3)c1` [Compound 2p, 2-(adamantan-1-yl)-2-oxoethyl 3-aminobenzoate], the “BChE inhibition effect (in words)” value in assay [1] was “inactive”. Besides, the IC50 in assay [1] (setting [3]) and in assay [2] (setting [4]) was greater than 1500 µM in each case. The “AChE inhibition effect (in words)” value in assay [2] is “inactive”.

With `Nc1ccc(C(=O)OCC(=O)C23CC4CC(CC(C4)C2)C3)cc1` [Compound 2q, 2-(adamantan-1-yl)-2-oxoethyl 4-aminobenzoate], the “BChE inhibition effect (in words)” value in assay [1] was “inactive”. Also, the IC50 in assay [1] (setting [3]) and in assay [2] (setting [4]) was greater than 1500 µM each time. For the same compound, the “AChE inhibition effect (in words)” value in assay [2] is “inactive”.

As to `O=C(OCC(=O)C12CC3CC(CC(C3)C1)C2)c1ccccn1` [Compound 2r, 2-(Adamantan-1-yl)-2-oxoethyl picolinate], in assay [1], the “BChE inhibition effect (in words)” value is “low inhibition effects”. For the same compound, the concentration for half-maximal inhibition (IC50) in assay [1] (setting [3]) and in assay [2] (setting [4]) was greater than 1500 µM in each case. For the same compound, the “AChE inhibition effect (in words)” value in assay [2] is “low inhibition effects”.

These data come from paper PMC6152672, “Cholinesterase Inhibitory Activities of Adamantyl-Based Derivatives and Their Molecular Docking Studies” (Molecules : A Journal of Synthetic Chemistry and Natural …, 2017).
